{"source": "paper PMC5435703", "about": "(Scientific Reports, 2017)", "key": {"[1]": {"assay": "LDH release assay for HeLa cytotoxicity", "assay_type": "cell-based", "settings": "human, HeLa cells; LDH release, 24 hours; tested at 25, 50 and 100 µM; read-out: HeLa Cytotox. IC50"}, "[2]": {"assay": "Hemolysis assay with red blood cells", "settings": "human, pH 7.2"}, "[3]": {"system": "MRSE 35984", "assay": "Calgary Biofilm Device (CBD) MBC/MBEC assay", "assay_type": "cell-based, Staphylococcus epidermidis"}, "[4]": {"system": "MRSA BAA-1707", "assay": "Macromolecular synthesis inhibition assay with [3H]-labeled precursors", "assay_type": "cell-based, Staphylococcus aureus", "description": "To characterize the antibacterial mechanism of action for HP small molecules, we investigated the effects HP 1 has against MRSA BAA-1707 on global biosynthetic pathways in rapidly-dividing (exponentially-growing) planktonic cells through quantifying the incorporation of various [^3H]-labeled precursors into their corresponding macromolecules. For these experiments, MRSA-1707 cultures were treated with [^3H]-thymidine (DNA biosynthesis), [^3H]-uridine (RNA biosynthesis) and [^3H]-leucine (protein biosynthesis) in the presence of HP 1 and antibiotic controls (4–16 x MIC).\nMacromolecular syntheses experiments were carried out in methicillin-resistant Staphylococcus aureus BAA-1707. An overnight culture (100 µL) of S. aureus BAA-1707 was sub-cultured into 10 mL of fresh TSBG media which was allowed to grow to exponential phase (OD600 = 0.2–0.3) before transferring 500 µL to each well in a 24 well-plate. The test compounds and vehicle control (DMSO) were added to achieve the desired concentrations relative to their MIC values against S. aureus BAA-1707. Treated cultures were then incubated at 37 °C for 30 minutes before radioactive precursors for DNA ([^3H] thymidine (0.5 µCi)), RNA ([^3H] uridine (0.5 µCi)) and protein ([^3H] leucine (1 µCi)) were added. […] DMSO served as our negative control. DNA and RNA radiolabeled cultures were then incubated in 37 °C for 15 minutes before being stopped by adding 60 µL of cold 5% trichloroacetic acid (TCA). The protein synthesis experiment was stopped after 40 minutes by adding 60 µL cold TCA. These mixtures were then incubated at 2 °C for at least 30 minutes before the contents of the plates were transferred onto glass microfiber filters (24 mm) and washed 5 times with 1 mL of 5% TCA. The filters are allowed to dry overnight before 3.5 mL of the scintillation fluid was added to the scintillation vials containing the filters and the radiation counts were measured using liquid scintillation LS 6500.\nH.) Macromolecular Synthesis Inhibition Assay: […]"}, "[5]": {"system": "MtB H37Ra", "assay": "MIC assay for Mycobacterium tuberculosis", "assay_type": "cell-based", "settings": "168 h, seven days"}, "[6]": {"system": "MRSE 35984", "assay": "MIC broth microdilution assay", "assay_type": "cell-based, Staphylococcus epidermidis", "settings": "for MIC: Staphylococcus epidermidis, MRSE"}, "[7]": {"system": "MRSA BAA-1707", "assay": "Calgary Biofilm Device (CBD) MBC/MBEC assay", "assay_type": "cell-based, Staphylococcus aureus", "settings": "for MBC: Staphylococcus aureus"}, "[8]": {"system": "MRSA-2", "assay": "MIC broth microdilution assay", "assay_type": "cell-based, Staphylococcus aureus", "settings": "Staphylococcus aureus, MRSA"}, "[9]": {"system": "VRE 700221", "assay": "Calgary Biofilm Device (CBD) MBC/MBEC assay", "assay_type": "cell-based, Enterococcus faecium"}, "[10]": {"system": "MRSA-1", "assay": "MIC broth microdilution assay", "assay_type": "cell-based, Staphylococcus aureus", "settings": "Staphylococcus aureus, MRSA"}, "[11]": {"system": "S. epi 12228", "assay": "MIC broth microdilution assay", "assay_type": "cell-based, Staphylococcus epidermidis", "settings": "Staphylococcus epidermidis, 12228"}, "[12]": {"system": "HeLa cells", "assay": "LDH release assay for HeLa cytotoxicity", "assay_type": "cell-based", "settings": "100 µM"}, "[13]": {"system": "MRSA BAA-1707", "assay": "MIC assay with metal(II) cation co-treatment", "assay_type": "cell-based, Staphylococcus aureus"}, "[14]": {"system": "MRSA BAA-1707", "assay": "MIC broth microdilution assay", "assay_type": "cell-based, Staphylococcus aureus", "settings": "Staphylococcus aureus"}, "[15]": {"system": "MRSA BAA-44", "assay": "MIC broth microdilution assay", "assay_type": "cell-based", "settings": "Staphylococcus aureus; Table 1; read-out: MIC MRSA BAA-44"}, "[16]": {"assay": "Chemical stability in aqueous formulations", "assay_type": "physicochemical", "settings": "room temperature"}, "[17]": {"settings": "supplement page 28, single CBD plate"}, "[18]": {"settings": "Table 1, read-out: MIC MRSE 35984"}, "[19]": {"settings": "Table 3, read-out: MRSE 35984 MIC"}, "[20]": {"settings": "Table 1, read-out: MIC S. epi 12228"}}, "note": "Entries after “also recorded” stand apart in the source; their conditions may differ. Read-outs that look alike come from different tables or passages of the source. Marks after values point to notes of the source that are not given here.", "data": [{"molecule": "Oc1c(Br)cc(Br)c2nc3ccccc3nc12", "note": "[HP 1, 2,4-dibromo-1-hydroxyphenazine]", "values": [{"measurement": "IC50 at 24 h", "setting": "[1]", "result": "~100", "unit": "µM"}, {"measurement": "hemolysis at 1 h, 200 µM", "setting": "[2]", "result": "≤ 1", "unit": "%"}, {"measurement": "MBC", "setting": "[3]; Staphylococcus epidermidis, MRSE, CBD, planktonic killing, read-out: MRSE 35984 MBC", "result": 23.5, "unit": "µM"}, {"measurement": "MRSE Biofilm Eradication MBEC", "setting": "[3]; [17]", "result": 250, "unit": "µM"}, {"measurement": "MRSE Planktonic Killing MBC", "setting": "[3]; [17]", "result": 15.6, "unit": "µM"}, {"measurement": "RNA biosynthesis inhibition ([3H]-uridine)", "setting": "[4]; 4 x MIC", "result": "inhibits"}, {"measurement": "protein biosynthesis inhibition ([3H]-leucine)", "setting": "[4]; 4 x MIC", "result": "inhibits"}, {"measurement": "DNA biosynthesis inhibition ([3H]-thymidine)", "setting": "[4]; 8 x MIC", "result": "does not inhibit; also recorded: not inhibiting"}, {"measurement": "MIC", "setting": "[5]", "result": 25, "unit": "µM"}, {"measurement": "MIC", "setting": "[6]; [18]", "result": 2.35, "unit": "µM"}, {"measurement": "MIC", "setting": "[6]; [19]", "result": 2.35, "unit": "µM"}, {"measurement": "MIC MRSE 35984", "setting": "[6]; Table 1", "result": "2.35^a µM"}, {"measurement": "MRSA-1707 Biofilm Eradication MBEC", "setting": "[7]; Figure 7A, single CBD plate", "result": 50, "unit": "µM"}, {"measurement": "MBC", "setting": "[7]; 24 h, CBD, planktonic killing, 24 hours treatment, read-out: MRSA BAA-1707 MBC", "result": 50, "unit": "µM"}, {"measurement": "MBC", "setting": "[7]; 24 h, supplement page 27, first CBD plate, read-out: MRSA Planktonic Killing MBC", "result": 25, "unit": "µM"}, {"measurement": "MBC", "setting": "[7]; 24 h, supplement page 27, second CBD plate, read-out: MRSA Planktonic Killing MBC", "result": 25, "unit": "µM"}, {"measurement": "MBC", "setting": "[7]; Figure 7A, single CBD plate, read-out: MRSA-1707 Planktonic Eradication MBC", "result": 25, "unit": "µM"}, {"measurement": "MIC", "setting": "[8]; Table 1, read-out: MIC MRSA-2", "result": 2.35, "unit": "µM"}, {"measurement": "MIC", "setting": "[8]; single plate shown as picture, read-out: MIC (µM), MIC Assay Against MRSA-2", "result": 3.13, "unit": "µM"}, {"measurement": "MBC", "setting": "[9]; Enterococcus, VRE, CBD, planktonic killing, read-out: VRE 700221 MBC", "result": 18.8, "unit": "µM"}, {"measurement": "VRE Biofilm Eradication MBEC", "setting": "[9]; [17]", "result": 12.5, "unit": "µM"}, {"measurement": "VRE Planktonic Killing MBC", "setting": "[9]; [17]", "result": 12.5, "unit": "µM"}, {"measurement": "MIC", "setting": "[10]; Table 1, read-out: MIC MRSA-1", "result": 0.78, "unit": "µM"}, {"measurement": "MIC", "setting": "[11]; [20]", "result": 2.35, "unit": "µM"}, {"measurement": "MIC", "setting": "[11]; single plate shown as picture, read-out: MIC (µM), MIC Assay Against S. epidermidis 12228", "result": 3.13, "unit": "µM"}]}, {"molecule": "COCCOCCOCCOCCOC(=O)Oc1c(Br)cc(Br)c2nc3c(C)cccc3nc12", "note": "[HP 25]", "values": [{"measurement": "IC50 at 24 h", "setting": "[1]", "result": "> 100", "unit": "µM"}, {"measurement": "HeLa cell cytotoxicity at 100 µM", "setting": "[12]", "result": "no HeLa cell cytotoxicity"}, {"measurement": "hemolysis at 1 h, 200 µM", "setting": "[2]", "result": "≤ 1", "unit": "%"}, {"measurement": "MIC", "setting": "[13]; Staphylococcus aureus, Cu(II) co-treatment plate, lanes without metal, read-out: MIC", "result": 0.1, "unit": "µM"}, {"measurement": "MIC", "setting": "[13]; Staphylococcus aureus, Fe(II) co-treatment plate, lanes without metal, read-out: MIC", "result": 0.1, "unit": "µM"}, {"measurement": "MIC", "setting": "[13]; Staphylococcus aureus, Mg(II) co-treatment plate, lanes without metal, read-out: MIC", "result": 0.003, "unit": "µM"}, {"measurement": "MIC", "setting": "[13]; Staphylococcus aureus, Table 2, MRSA BAA-1707, no metal(II) cation added, read-out: MIC", "result": 0.0047, "unit": "µM"}, {"measurement": "MIC", "setting": "[13]; Staphylococcus aureus, Zn(II) extended plate assay, lanes without metal, read-out: MIC", "result": 0.003, "unit": "µM"}, {"measurement": "MIC", "setting": "[13]; Staphylococcus aureus, copper(II) at 200 µM co-treatment, read-out: MIC w/Cu2+", "result": "> 100", "unit": "µM"}, {"measurement": "MIC", "setting": "[13]; Staphylococcus aureus, iron(II) at 200 µM co-treatment, read-out: MIC w/Fe2+", "result": 25, "unit": "µM"}, {"measurement": "MIC", "setting": "[13]; Staphylococcus aureus, magnesium(II) at 200 µM co-treatment, read-out: MIC w/Mg2+", "result": 0.0047, "unit": "µM"}, {"measurement": "MIC", "setting": "[13]; Staphylococcus aureus, single plate, 200 µM Cu(II), read-out: MIC (µM) + Cu(II)", "result": "> 100", "unit": "µM"}, {"measurement": "MIC", "setting": "[13]; Staphylococcus aureus, single plate, 200 µM Fe(II), read-out: MIC (µM) + Fe(II)", "result": 25, "unit": "µM"}, {"measurement": "MIC", "setting": "[13]; Staphylococcus aureus, single plate, 200 µM Mg(II), read-out: MIC (µM) + Mg(II)", "result": 0.003, "unit": "µM"}, {"measurement": "MIC", "setting": "[13]; Staphylococcus aureus, zinc(II) at 200 µM co-treatment, read-out: MIC w/Zn2+", "result": "7e-05", "unit": "µM"}, {"measurement": "MIC", "setting": "[13]; extended plate assay, 200 µM Zn(II), read-out: MIC (µM) + Zn(II)", "result": 0.00005, "unit": "µM"}, {"measurement": "MIC", "setting": "[5]", "result": 12.5, "unit": "µM"}, {"measurement": "MIC", "setting": "[6]; [18]", "result": 0.15, "unit": "µM"}, {"measurement": "MIC", "setting": "[6]; [19]", "result": 0.15, "unit": "µM"}, {"measurement": "MIC", "setting": "[14]; Table 1, three independent experiments, read-out: MIC MRSA BAA-1707", "result": 0.003, "unit": "µM"}, {"measurement": "MIC", "setting": "[14]; Table 3, read-out: MRSA BAA-1707 MIC", "result": 0.003, "unit": "µM"}, {"measurement": "MIC", "setting": "[14]; single plate shown as picture, read-out: MIC (µM), MIC Assay against MRSA BAA-1707", "result": 0.003, "unit": "µM"}, {"measurement": "MIC", "setting": "[8]; Table 1, read-out: MIC MRSA-2", "result": "≤ 0.1", "unit": "µM"}, {"measurement": "MIC", "setting": "[10]; Table 1, read-out: MIC MRSA-1", "result": "≤ 0.1", "unit": "µM"}, {"measurement": "MIC", "setting": "[10]; single plate shown as picture, read-out: MIC (µM), MIC Assay Against MRSA-1", "result": 0.1, "unit": "µM"}, {"measurement": "MIC", "setting": "[15]", "result": 0.013, "unit": "µM"}, {"measurement": "chemically stable in aqueous formulations", "setting": "[16]", "result": "> 1", "unit": "month"}, {"measurement": "MIC", "setting": "[11]; [20]", "result": "≤ 0.1", "unit": "µM"}]}]}
